Patent US10322098B2, “Composition for use in the treatment of intervertebral disc-related pain” (STAYBLE THERAPEUTICS AB, priority 2014, dated 2019)

What was measured:
[1] = Tolerability of intradiscal injection in pigs (behaviour, injection site by the naked eye); assay type: in vivo, pig; details: two pigs
Method: Two pigs were anesthetized and placed on their right side. Access to the L4-5 intervertebral disc was obtained through a lateral incision between the lowest rib and the iliac crest on the left side of each pig. Thereafter, the L3-4 intervertebral disc was incised with a scalpel.
The composition was injected in a single step at a single occasion.
At harvest, the pigs were killed.
The injection site was observed by the naked eye. […] The segment of the vertebral column extending from the lumbar vertebra L2 to the sacral vertebra S1 was removed. The facet joints were removed, thus allowing full flexibility of the discs with no restraints from other structures.

[2] = system: disc space of the L3-4 intervertebral disc; assay: Dimension of the disc space after local injection into the nucleus pulposus in a pig; assay type: in vivo; details: injected L3-4 disc compared with non-injected L2-3 and L4-5; FIG. 7
Method: 110. performing a cross-section of the discs and measuring the length (anterio-posterior direction) and the width (bilateral direction) of the disc space. Two pigs were anesthetized and placed on their right side. Access to the L4-5 intervertebral disc was obtained through a lateral incision between the lowest rib and the iliac crest on the left side of each pig. Thereafter, the L3-4 intervertebral disc was incised with a scalpel. […] The composition was injected in a single step at a single occasion. The intervertebral discs (L2-3, L3-4, L4-5) were cross-sectioned and the length of the disc space (anterio-posterior direction) and the width (bilateral direction) of the disc space were measured by calipers. In FIGS. 5 and 6, an intervertebral disc is schematically shown in cross-section. The intervertebral disc comprises the annulus fibrosus 10, and a disc space defined by the annulus fibrosus and comprising the nucleus pulposus 11.

## CC(O)C(=O)O (stereo not drawn) [lactic acid]
[1]; 0.2 mL of 1.34 mol/L into L3-4 nucleus pulposus, period of seven days until harvest
  Adverse reaction such as decreased mobility or vocalization: no adverse reaction
[1]; observed by the naked eye at harvest, seven days
  Adverse reaction at the injection site, such as bleedings, inflammation or necrosis: No adverse reaction
[2]
  Observation of the cross-sectioned disc space by the naked eye: newly formed connective tissue in the disc space
